Here are results for two molecules from PMC8161398, “Targeting Lactate Dehydrogenase A with Catechin Resensitizes SNU620/5FU Gastric Cancer Cells to 5-Fluorouracil” (International Journal of Molecular Sciences, 2021).

The target of assay [1] is T1, lactate dehydrogenase A (LDHA) (Homo sapiens, UniProt P00338).
T1 construct: purified recombinant LDHA
Nature of the assay: ITC; also purified LDHA activity assay by NADH fluorescence (IC50 =[…]). It counts as binding.

The target in assay [2] is T2, lactate dehydrogenase B (LDHB) (Homo sapiens, UniProt P07195).
T2 construct: purified recombinant LDHB
The assay can be described thus: LDHB activity assay (NADH fluorescence), dose-dependent. It counts as biochemical.

Assay [3] concerns the target T1, lactate dehydrogenase A (LDHA). The assay can be described thus: LDHA activity assay (NADH fluorescence), dose-dependent. It counts as biochemical.

T2 sequence (P07195 2-334): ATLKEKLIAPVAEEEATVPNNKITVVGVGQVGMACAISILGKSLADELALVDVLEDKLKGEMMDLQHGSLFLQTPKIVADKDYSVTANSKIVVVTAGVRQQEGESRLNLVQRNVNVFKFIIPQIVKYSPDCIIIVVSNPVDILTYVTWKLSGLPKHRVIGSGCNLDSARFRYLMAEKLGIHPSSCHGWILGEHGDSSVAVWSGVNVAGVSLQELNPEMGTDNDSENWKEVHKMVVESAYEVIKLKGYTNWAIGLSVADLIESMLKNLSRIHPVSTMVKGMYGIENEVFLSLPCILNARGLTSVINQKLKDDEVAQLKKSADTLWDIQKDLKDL

Turning to `Oc1cc(O)c2c(c1)OC(c1ccc(O)c(O)c1)C(O)C2` (stereo not drawn) [CA, Catechin], the Kd in assay [1] stood at 197 µM.
On to `O=C(O[C@@H]1Cc2c(O)cc(O)cc2O[C@@H]1c1cc(O)c(O)c(O)c1)c1cc(O)c(O)c(O)c1` [EGCG, epigallocatechin-3-gallate], for which, in assay [2], the “LDHB activity assay (NADH fluorescence), dose-dependent” value is “exert inhibitory effects on both LDHA and LDHB activities”. In addition, the “LDHA activity assay (NADH fluorescence), dose-dependent” value in assay [3] is “LDHA and LDHB activities were measured with EGCG, which is known to inhibit LDHA activity”.
